{
  "source": "PubChem BioAssay AID1259407",
  "about": "(Chemical Carcinogenesis Research Information System (CCRIS), 2018)",
  "system": "CCRIS mutagenicity, Ames/micronucleus/aberration tests",
  "assay": "CCRIS mutagenicity studies",
  "note": "Active and inactive are the calls of the source. The rule behind the calls is not given here.",
  "data": [
    {"molecule": "OC[P+](CO)(CO)CO", "values": [
      {"measurement": "mutagenic call", "setting": "End Point: IN VITRO CHROMOSOMAL ABERRATIONS, Test System: CHO CELLS, Metabolic Activation: NONE", "result": "active; positive"},
      {"measurement": "mutagenic call", "setting": "Test System: AMES SALMONELLA TYPHIMURIUM, Strain/Indicator: TA97, Metabolic Activation: HAMSTER, LIVER, S-9, AROCLOR 1254 (10%), Method: PREINCUBATION", "result": "inactive; negative"},
      {"measurement": "mutagenic call", "setting": "Test System: AMES SALMONELLA TYPHIMURIUM, Strain/Indicator: TA97, Metabolic Activation: HAMSTER, LIVER, S-9, AROCLOR 1254 (30%), Method: PREINCUBATION", "result": "inactive; negative"},
      {"measurement": "mutagenic call", "setting": "Test System: AMES SALMONELLA TYPHIMURIUM, Strain/Indicator: TA97, Metabolic Activation: NONE, Method: PREINCUBATION", "result": "inactive; negative"},
      {"measurement": "mutagenic call", "setting": "Test System: AMES SALMONELLA TYPHIMURIUM, Strain/Indicator: TA97, Metabolic Activation: RAT, LIVER, S-9, AROCLOR 1254 (10%), Method: PREINCUBATION", "result": "inactive; negative"},
      {"measurement": "mutagenic call", "setting": "Test System: AMES SALMONELLA TYPHIMURIUM, Strain/Indicator: TA97, Metabolic Activation: RAT, LIVER, S-9, AROCLOR 1254 (30%), Method: PREINCUBATION", "result": "inactive; negative"},
      {"measurement": "mutagenic call", "setting": "Test System: AMES SALMONELLA TYPHIMURIUM, Strain/Indicator: TA98, Metabolic Activation: HAMSTER, LIVER, S-9, AROCLOR 1254 (10%), Method: PREINCUBATION", "result": "inactive; negative"},
      {"measurement": "mutagenic call", "setting": "Test System: AMES SALMONELLA TYPHIMURIUM, Strain/Indicator: TA98, Metabolic Activation: HAMSTER, LIVER, S-9, AROCLOR 1254 (30%), Method: PREINCUBATION", "result": "inactive; negative"},
      {"measurement": "mutagenic call", "setting": "Test System: AMES SALMONELLA TYPHIMURIUM, Strain/Indicator: TA98, Metabolic Activation: HAMSTER, LIVER, S-9, AROCLOR 1254, Method: PREINCUBATION", "result": "inactive; negative"},
      {"measurement": "mutagenic call", "setting": "Test System: AMES SALMONELLA TYPHIMURIUM, Strain/Indicator: TA98, Metabolic Activation: NONE, Method: PREINCUBATION", "result": "inactive; negative"},
      {"measurement": "mutagenic call", "setting": "Test System: AMES SALMONELLA TYPHIMURIUM, Strain/Indicator: TA98, Metabolic Activation: RAT, LIVER, S-9, AROCLOR 1254 (10%), Method: PREINCUBATION", "result": "inactive; negative"},
      {"measurement": "mutagenic call", "setting": "Test System: AMES SALMONELLA TYPHIMURIUM, Strain/Indicator: TA98, Metabolic Activation: RAT, LIVER, S-9, AROCLOR 1254 (30%), Method: PREINCUBATION", "result": "inactive; negative"},
      {"measurement": "mutagenic call", "setting": "Test System: AMES SALMONELLA TYPHIMURIUM, Strain/Indicator: TA98, Metabolic Activation: RAT, LIVER, S-9, AROCLOR 1254, Method: PREINCUBATION", "result": "inactive; negative"},
      {"measurement": "mutagenic call", "setting": "Test System: AMES SALMONELLA TYPHIMURIUM, Strain/Indicator: TA100, Metabolic Activation: HAMSTER, LIVER, S-9, AROCLOR 1254 (10%), Method: PREINCUBATION", "result": "inactive; negative"},
      {"measurement": "mutagenic call", "setting": "Test System: AMES SALMONELLA TYPHIMURIUM, Strain/Indicator: TA100, Metabolic Activation: HAMSTER, LIVER, S-9, AROCLOR 1254 (30%), Method: PREINCUBATION", "result": "inactive; negative"},
      {"measurement": "mutagenic call", "setting": "Test System: AMES SALMONELLA TYPHIMURIUM, Strain/Indicator: TA100, Metabolic Activation: HAMSTER, LIVER, S-9, AROCLOR 1254, Method: PREINCUBATION", "result": "inactive; negative"},
      {"measurement": "mutagenic call", "setting": "Test System: AMES SALMONELLA TYPHIMURIUM, Strain/Indicator: TA100, Metabolic Activation: NONE, Method: PREINCUBATION", "result": "inactive; negative"},
      {"measurement": "mutagenic call", "setting": "Test System: AMES SALMONELLA TYPHIMURIUM, Strain/Indicator: TA100, Metabolic Activation: RAT, LIVER, S-9, AROCLOR 1254 (10%), Method: PREINCUBATION", "result": "inactive; negative"},
      {"measurement": "mutagenic call", "setting": "Test System: AMES SALMONELLA TYPHIMURIUM, Strain/Indicator: TA100, Metabolic Activation: RAT, LIVER, S-9, AROCLOR 1254 (30%), Method: PREINCUBATION", "result": "inactive; negative"},
      {"measurement": "mutagenic call", "setting": "Test System: AMES SALMONELLA TYPHIMURIUM, Strain/Indicator: TA100, Metabolic Activation: RAT, LIVER, S-9, AROCLOR 1254, Method: PREINCUBATION", "result": "inactive; negative"},
      {"measurement": "mutagenic call", "setting": "Test System: AMES SALMONELLA TYPHIMURIUM, Strain/Indicator: TA1535, Metabolic Activation: HAMSTER, LIVER, S-9, AROCLOR 1254 (10%), Method: PREINCUBATION", "result": "inactive; negative"},
      {"measurement": "mutagenic call", "setting": "Test System: AMES SALMONELLA TYPHIMURIUM, Strain/Indicator: TA1535, Metabolic Activation: HAMSTER, LIVER, S-9, AROCLOR 1254 (30%), Method: PREINCUBATION", "result": "inactive; negative"},
      {"measurement": "mutagenic call", "setting": "Test System: AMES SALMONELLA TYPHIMURIUM, Strain/Indicator: TA1535, Metabolic Activation: HAMSTER, LIVER, S-9, AROCLOR 1254, Method: PREINCUBATION", "result": "inactive; negative"},
      {"measurement": "mutagenic call", "setting": "Test System: AMES SALMONELLA TYPHIMURIUM, Strain/Indicator: TA1535, Metabolic Activation: NONE, Method: PREINCUBATION", "result": "inactive; negative"},
      {"measurement": "mutagenic call", "setting": "Test System: AMES SALMONELLA TYPHIMURIUM, Strain/Indicator: TA1535, Metabolic Activation: RAT, LIVER, S-9, AROCLOR 1254 (10%), Method: PREINCUBATION", "result": "inactive; negative"},
      {"measurement": "mutagenic call", "setting": "Test System: AMES SALMONELLA TYPHIMURIUM, Strain/Indicator: TA1535, Metabolic Activation: RAT, LIVER, S-9, AROCLOR 1254 (30%), Method: PREINCUBATION", "result": "inactive; negative"},
      {"measurement": "mutagenic call", "setting": "Test System: AMES SALMONELLA TYPHIMURIUM, Strain/Indicator: TA1535, Metabolic Activation: RAT, LIVER, S-9, AROCLOR 1254, Method: PREINCUBATION", "result": "inactive; negative"},
      {"measurement": "mutagenic call", "setting": "Test System: AMES SALMONELLA TYPHIMURIUM, Strain/Indicator: TA1537, Metabolic Activation: HAMSTER, LIVER, S-9, AROCLOR 1254 (10%), Method: PREINCUBATION", "result": "inactive; negative"},
      {"measurement": "mutagenic call", "setting": "Test System: AMES SALMONELLA TYPHIMURIUM, Strain/Indicator: TA1537, Metabolic Activation: HAMSTER, LIVER, S-9, AROCLOR 1254 (30%), Method: PREINCUBATION", "result": "inactive; negative"},
      {"measurement": "mutagenic call", "setting": "Test System: AMES SALMONELLA TYPHIMURIUM, Strain/Indicator: TA1537, Metabolic Activation: HAMSTER, LIVER, S-9, AROCLOR 1254, Method: PREINCUBATION", "result": "inactive; negative"},
      {"measurement": "mutagenic call", "setting": "Test System: AMES SALMONELLA TYPHIMURIUM, Strain/Indicator: TA1537, Metabolic Activation: NONE, Method: PREINCUBATION", "result": "inactive; negative"},
      {"measurement": "mutagenic call", "setting": "Test System: AMES SALMONELLA TYPHIMURIUM, Strain/Indicator: TA1537, Metabolic Activation: RAT, LIVER, S-9, AROCLOR 1254 (10%), Method: PREINCUBATION", "result": "inactive; negative"},
      {"measurement": "mutagenic call", "setting": "Test System: AMES SALMONELLA TYPHIMURIUM, Strain/Indicator: TA1537, Metabolic Activation: RAT, LIVER, S-9, AROCLOR 1254 (30%), Method: PREINCUBATION", "result": "inactive; negative"},
      {"measurement": "mutagenic call", "setting": "Test System: AMES SALMONELLA TYPHIMURIUM, Strain/Indicator: TA1537, Metabolic Activation: RAT, LIVER, S-9, AROCLOR 1254, Method: PREINCUBATION", "result": "inactive; negative"},
      {"measurement": "mutagenic call", "setting": "Test System: MOUSE LYMPHOMA, Strain/Indicator: L5178Y (TK+/TK-), Metabolic Activation: NONE, Method: SUSPENSION/PLATE", "result": "active; positive"}
    ]}
  ]
}
